Experimental findings from patent publication US7868026B2, “Therapeutic compounds” (Pfizer Inc., priority 2005, dated 2011) are described below.

What all share (format): biochemical
The target of assay [1] is T1, CYP3A4 (Homo sapiens, UniProt P08684). Kind of assay: Determination of compound Kiapp against recombinant CYP3A4 enzyme (BFC fluorescent substrate). The procedure:
1. Determination of compound Kiapp
A determination of the Kiapp of the compounds of the invention against recombinant CYP3A4 enzyme was performed as follows. The assay was performed in a 100 mM sodium phosphate buffer pH 7.0, 5 mM TCEP and containing 2% dimethylformamide (final concentration) upon addition of substrate and inhibitor. A typical reaction for the determination of Kiapp values was carried at room temperature in a solid black Costar u-bottom 96-well polypropylene plate. In each well, recombinant CYP3A4 enzyme (5.5 nM or 8 nM, final concentration depending on the commercial source of the enzyme) was pre-incubated in the presence of the inhibitor for at least 30 minutes in the assay buffer. When pre-incubation was completed (˜30 min), the reaction was initiated by adding NADPH (200 uM, final concentration), and 7-benzyloxy-4-(trifluoromethyl)-coumarin (BFC) (5 uM, final concentration). The oxidation of the coumarin substrate was recorded by a 96-well plate reader POLARstar (BMG LABTECH, Offenburg, Germany).
The initial reaction velocities were measured during the first 5 min of the reaction when the release of the fluorescent product is linear with time, in the absence and in the presence of various concentrations of inhibitors. For non-partial & partial inhibitors, the Kiapp values were determined by using the equation for tight-binding inhibitor developed by Morrison, J F (Morrison J F. Biochim Biophys Acta. 1969, 185: 269-86) and by Szedlaseck S E et al. (Szedlascek, S. E., Ostafe, V., Serban, M., and Vlad, M.O. Biochem. J. 1988, 254:311-312), respectively.
The fluorescent substrate BFC was purchased from Sigma (St Louis, Mo.). Two commercial sources of recombinant enzymes were used in this study: recombinant CYP3A4−b5 enzyme (Baculosomes®) was purchased from Invitrogen (Carlsbad, Calif.) and the recombinant CYP3A4+b5 enzyme (Supersomes®) was purchased from BD Biosciences (Woburn, Mass.).

Assay [2] has as its target T1, CYP3A4. In words: Determination of IC50 against CYP3A4 by measurement of inhibition of midazolam metabolism (human liver microsomes, 1-hydroxymidazolam by LC-MS/MS). The arrangement: 0.1 mg/mL human liver microsomes. The following applies: 2 μM midazolam, 0.1 mg/mL human liver microsomes. The procedure:
3. Determination of IC50 Against CYP3A4 by Measurement of Inhibition of Midazolam Metabolism
This assay was performed using a standard 96 well plate design. […] The incubation substrate mix contains 2 μM midazolam, 0.1 mg/mL human liver microsomes, 1 mM NADPH, and potassium phosphate buffer (100 mM, pH 7.4). Quantitation of metabolite peak area ratio against internal standard is determined by LC-MS/MS analysis. The production of 1-hydroxymidazolam from midazolam metabolism is determined after incubation for eight minutes by comparison to a standard curve generated for the metabolite.
(§1) Samples were analyzed in the MRM mode using a Sciex API 3000 mass spectrometer (Applied Biosystems, Foster City, Calif.) with a Paradigm MS4 binary pump (Michrom BioResources Inc., Auburn, Calif.) and a LEAP CTC PAL autosampler (LEAP Technologies, Carrboro, N.C.). A Phenomenex Synergi, 4μ, Polar-RP, 10×2.0 mm column (Phenomenex, Torrance, Calif.) was used for separation with a mobile phase composition of: 0.1% formic acid in water (A) and: 0.1% formic acid in methanol (B). The following gradient was used: […]
(§2) The sample injection volume was 10 μL and flow was split post-column with 0.4 mL/min going to the mass spectrometer. Analysis was performed using the following API 3000 mass spectrometer settings: […]

The target in assay [3] is T1, CYP3A4. Kind of assay: Determination of IC50 against CYP3A4 by measurement of inhibition of testosterone metabolism (human liver microsomes, 6-β-OH-testosterone by LC-MS/MS). The arrangement: 0.1 mg/mL human liver microsomes. As to conditions: read-out: IC50 (Testo.). The procedure:
2. Determination of IC50 Against CYP3A4 by Measurement of Inhibition of Testosterone Metabolism
This assay was performed using a standard 96 well plate design. […] The incubation substrate mix contains 25 μM testosterone, 0.1 mg/mL human liver microsomes, 1 mM NADPH, and potassium phosphate buffer (100 mM, pH 7.4). Quantitation of metabolite peak area ratio against an internal standard is determined by LC-MS/MS analysis. The production of 6-β-OH-testosterone from testosterone metabolism is determined after incubation for eight minutes by comparison to a standard curve generated for the metabolite
as §1, §2

Where [4] appears, read: Baculo. enzyme preparation, read-out: Kiapp (BFC, Baculo.).
Setting [5] is: Super. enzyme preparation, read-out: Kiapp (BFC, Super.).

Where two headings read alike, the source gives them in different places.

T1 sequence (P08684 whole entry): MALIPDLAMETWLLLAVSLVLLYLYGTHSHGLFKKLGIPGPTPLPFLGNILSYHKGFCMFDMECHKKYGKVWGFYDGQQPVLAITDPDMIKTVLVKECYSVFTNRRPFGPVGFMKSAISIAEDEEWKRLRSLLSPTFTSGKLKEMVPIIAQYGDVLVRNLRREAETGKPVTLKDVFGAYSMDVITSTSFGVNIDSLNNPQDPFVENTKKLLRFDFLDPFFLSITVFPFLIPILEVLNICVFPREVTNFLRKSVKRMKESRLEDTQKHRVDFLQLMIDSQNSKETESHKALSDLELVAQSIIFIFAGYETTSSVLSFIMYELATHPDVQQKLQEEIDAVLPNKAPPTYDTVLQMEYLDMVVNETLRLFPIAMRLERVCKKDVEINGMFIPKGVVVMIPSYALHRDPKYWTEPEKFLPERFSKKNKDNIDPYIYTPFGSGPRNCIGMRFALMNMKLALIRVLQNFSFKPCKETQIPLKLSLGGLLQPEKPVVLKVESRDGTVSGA

For `CC1CCN(CC(C)(C)NC(=O)c2ccccc2S(=O)(=O)Nc2cccnc2)CC1` [Example 1, N-[1,1-dimethyl-2-(4-methylpiperidin-1-yl)ethyl]-2-[(pyridin-3-ylamino)sulfonyl]benzamide], the values for the Ki at CYP3A4 [1] (setting [4]) and on CYP3A4 [1] (setting [5]) were 538 nM and 662 nM, respectively. Moreover, the IC50 on CYP3A4 [2] is 390 nM; on CYP3A4 [3], below 3 nM.
The like results for `CC(C)(CN1CCCCC1)NC(=O)c1ccccc1S(=O)(=O)Nc1cccnc1` [Example 2, N-(1,1-dimethyl-2 piperidin-1-ylethyl)-2-[(pyridin-3-ylamino)sulfonyl]benzamide] were, in that order, 901 nM, 570 nM, above 750 nM and above 750 nM.
The matching figures for `CC(C)(CN1CCCC1)NC(=O)c1ccccc1S(=O)(=O)Nc1cccnc1` [Example 3]: 858 nM, above 1000 nM, above 750 nM and above 750 nM.
With `CC(C)(NC(=O)c1ccccc1S(=O)(=O)Nc1cccnc1)C1CC1` [Example 4, N-(1-cyclopropyl-1-methylethyl)-2-[(pyridin-3-ylamino)sulfonyl]benzamide], the values for the Ki on CYP3A4 [1] (setting [4]) and on CYP3A4 [1] (setting [5]) were 167 nM and 43.6 nM, respectively. Moreover, the IC50 is 52 nM on CYP3A4 [2] and 96 nM on CYP3A4 [3].
Consider `O=C(NCc1ccccc1F)c1ccccc1S(=O)(=O)Nc1cccnc1` [Example 5, N-(2-fluorobenzyl)-2-[(pyridin-3-ylamino)sulfonyl]benzamide], for which the Ki amounted to 55.9 nM at CYP3A4 [1] (setting [4]) and 5.8 nM on CYP3A4 [1] (setting [5]). Further, the results for the IC50 on CYP3A4 [2] and at CYP3A4 [3] were 41 nM and 66 nM, respectively.
The matching figures for `O=C(c1ccccc1S(=O)(=O)Nc1cccnc1)N1CC2(CCNCC2)C1` [Example 7, 2-(2,7-diazaspiro[3.5]non-2-ylcarbonyl)-N-pyridin-3-ylbenzenesulfonamide]: above 1000 nM, above 1000 nM, above 750 nM and above 750 nM.
`O=C(NC1CCCCC1)c1ccccc1S(=O)(=O)Nc1cccnc1` [Example 8, N-cyclohexyl-2-[(pyridin-3-ylamino)sulfonyl]benzamide]: the Ki on CYP3A4 [1] (setting [4]) is 460 nM; on CYP3A4 [1] (setting [5]) it was 44.6 nM. Moreover, the results for the IC50 on CYP3A4 [2] and on CYP3A4 [3] were 63 nM and 67 nM, respectively.
As to `O=C(NCc1ccc(F)cc1)c1ccccc1S(=O)(=O)Nc1cccnc1` [Example 9, N-(4-fluorobenzyl)-2-[(pyridin-3-ylamino)sulfonyl]benzamide], the figures for the Ki at CYP3A4 [1] (setting [4]) and at CYP3A4 [1] (setting [5]) were 173 nM and 4 nM, respectively. For the same compound, the IC50 at CYP3A4 [2] turned out to be 11 nM; at CYP3A4 [3], 9 nM.
`O=C(c1ccccc1S(=O)(=O)Nc1cccnc1)N1CCN(c2ccc(F)cc2)CC1` [Example 13, 2-{[4-(4-fluorophenyl)piperazin-1-yl]carbonyl}-N-pyridin-3-ylbenzenesulfonamide]: the Ki at CYP3A4 [1] (setting [4]) turned out to be 251 nM. In addition, the IC50 on CYP3A4 [3] stood at 24 nM.
Take `CC(C)(C)NC(=O)c1ccccc1S(=O)(=O)Nc1cccnc1` [Example 14, N-(tert-butyl)-2-[(pyridin-3-ylamino)sulfonyl]benzamide]: the Ki on CYP3A4 [1] (setting [4]) was determined as 503 nM. For the same compound, the IC50 at CYP3A4 [3] came out at 60 nM.
With `CC(C)(CNC(=O)c1ccccc1S(=O)(=O)Nc1cccnc1)N1CCOCC1` [Example 32, N-(2-methyl-2-morpholin-4-ylpropyl)-2-[(pyridin-3-ylamino)sulfonyl]benzamide], the results for the IC50 at CYP3A4 [2] and at CYP3A4 [3] were 413 nM and above 750 nM, respectively.
As for `CC(C)(CN1CCOCC1)NC(=O)c1ccccc1[S+]([O-])Cc1cccnc1` (stereo not shown) [Example 70, N-(1,1-dimethyl-2-morpholin-4-ylethyl)-2-[(pyridin-3-ylmethyl)sulfinyl]benzamide], the Ki on CYP3A4 [1] (setting [4]) is 800 nM. The IC50 on CYP3A4 [3] is 421 nM.
Take `COc1cncc(NS(=O)(=O)c2ccccc2C(=O)NCCc2ccc(F)c(F)c2)c1` [Example 137, N-[2-(3,4-difluorophenyl)ethyl]-2-{[(5-methoxypyridin-3-yl)amino]sulfonyl}benzamide]: the Ki on CYP3A4 [1] (setting [4]) turned out to be 115 nM; at CYP3A4 [1] (setting [5]), 7.3 nM. Moreover, at CYP3A4 [2], the IC50 was 18 nM.
On to `COc1cncc(NS(=O)(=O)c2ccccc2C(=O)NCc2ccc(C)c(Cl)c2)c1` [Example 138, N-(3-chloro-4-methylbenzyl)-2-{[(5-methoxypyridin-3-yl)amino]sulfonyl}benzamide], for which the Ki on CYP3A4 [1] (setting [4]) was 19.6 nM; on CYP3A4 [1] (setting [5]), 2.7 nM. Further, on CYP3A4 [2], the IC50 was determined as 16 nM.
As for `Cc1ccncc1NS(=O)(=O)c1ccccc1C(=O)N(C)Cc1ccccc1` [Example 139, N-benzyl-N-methyl-2-{[(4-methylpyridin-3-yl)amino]sulfonyl}benzamide], the Ki amounted to 388 nM at CYP3A4 [1] (setting [4]) and 51.1 nM on CYP3A4 [1] (setting [5]). Besides, the IC50 on CYP3A4 [2] stood at 48 nM.
As for `CN(Cc1ccc(C(F)(F)F)cc1)C(=O)c1ccccc1S(=O)(=O)Nc1cccnc1` [Example 140, N-methyl-2-[(pyridin-3-ylamino)sulfonyl]-N-[4-(trifluoromethyl)benzyl]benzamide], the Ki is 160 nM on CYP3A4 [1] (setting [4]) and 17.3 nM on CYP3A4 [1] (setting [5]). In addition, on CYP3A4 [2], the IC50 is 56 nM.
`CN(Cc1ccc(F)cc1)C(=O)c1ccccc1S(=O)(=O)Nc1cccnc1` [Example 141, N-(4-fluorobenzyl)-N-methyl-2-[(pyridin-3-ylamino)sulfonyl]benzamide]: the Ki at CYP3A4 [1] (setting [4]) is 172 nM; at CYP3A4 [1] (setting [5]), 21.1 nM. In addition, the IC50 on CYP3A4 [2] was determined as 36 nM.
With `CCOc1ccncc1NS(=O)(=O)c1ccccc1C(=O)N(C)Cc1ccc(F)cc1` [Example 142, 2-{[(4-ethoxypyridin-3-yl)amino]sulfonyl}-N-(4-fluorobenzyl)-N-methylbenzamide], the Ki was determined as 111 nM on CYP3A4 [1] (setting [4]) and 11.8 nM on CYP3A4 [1] (setting [5]). Besides, on CYP3A4 [2], the IC50 was 26 nM.
The matching figures for `COc1ccncc1NS(=O)(=O)c1ccccc1C(=O)N(C)Cc1ccc(F)cc1` [Example 143, N-(4-fluorobenzyl)-2-{[(4-methoxypyridin-3-yl)amino]sulfonyl}-N-methylbenzamide]: 169 nM, 29 nM and 58 nM.
The like results for `Cc1ccncc1NS(=O)(=O)c1ccccc1C(=O)N(C)Cc1ccc(F)cc1` [Example 144, N-(4-fluorobenzyl)-N-methyl-2-{[(4-methylpyridin-3-yl)amino]sulfonyl}benzamide] were, in that order, 327 nM, 39 nM and 72 nM.
The like results for `Cc1cncc(NS(=O)(=O)c2ccccc2C(=O)N(C)Cc2ccc(C(F)(F)F)cc2)c1` [Example 145, N-methyl-2-{[(5-methylpyridin-3-yl)amino]sulfonyl}-N-[4-(trifluoromethyl)benzyl]benzamide] were, in that order, 43.9 nM, 5.9 nM and 18 nM.
Take `Cc1cncc(NS(=O)(=O)c2ccccc2C(=O)N(C)Cc2ccc(F)cc2)c1` [Example 146, N-(4-fluorobenzyl)-N-methyl-2-{[(5-methylpyridin-3-yl)amino]sulfonyl}benzamide]: the values for the Ki at CYP3A4 [1] (setting [4]) and at CYP3A4 [1] (setting [5]) were 54.6 nM and 8.6 nM, respectively. For the same compound, on CYP3A4 [2], the IC50 was found to be 11 nM.
Take `COc1cncc(NS(=O)(=O)c2ccccc2C(=O)NCc2cc(F)ccc2F)c1` [Example 147, N-(2,5-difluorobenzyl)-2-{[(5-methoxypyridin-3-yl)amino]sulfonyl}benzamide]: the Ki came to 209 nM at CYP3A4 [1] (setting [4]) and 19.2 nM on CYP3A4 [1] (setting [5]). Moreover, the IC50 at CYP3A4 [2] amounted to 16 nM.

One may read the IC50 as the point on the concentration scale where inhibition reaches its midpoint.
